“And” between values parts separate entries of the source, which are not always exact repeats. Equal entries are not always repeated. Structures can show the parent of a compound that is named as a salt.
System: HCT116
Experiment: efficacy (fitted maximal change in viability relative to DMSO control); higher = less cytotoxic (negative = loss of viability)
Conditions: 48 h
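Further: Luminescence-based viability readout, five doses per compound, normalized against on-plate DMSO and empty-well controls, followed by dose-response curve fitting for every drug.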

| Structure (SMILES) | efficacy |
| --- | --- |
| NC(=O)[C@@H](CC1CC1)[C@@H](CCC(F)(F)F)C(=O)N[C@H]2\N=C(C3=CC=CC=C3)/C4=CC=CC(=C4NC2=O)F | -12.2% |
| O=C(O)c1ccccc1-c1ccc(/C=c2\sc3nc4cc(Br)cnc4n3c2=O)o1 [ML-119] | -9.89% |
| CCOC(=O)c1ccc(C#Cc2ccc3c(c2)C(C)(C)CCS3)nc1 [Tazarotene] | -38.2% |
| O=C1\C=C(/OC2=C1C=CC=C2C3=CC=CC=C3)N4CCOCC4 | -24.3% |
| CC(C)(C)C(=O)Oc1ccc2c(c1)nc(NC(=O)c1cccc([N+](=O)[O-])c1)n2CCCO | -19.1% |
| CC1(C)CC(=O)c2c(C(F)(F)F)nn(-c3ccc(C(N)=O)c(NC4CCC(OC(=O)CN)CC4)c3)c2C1 (configuration not stated) [SNX-5422] | -57.9% |
| CC(=O)NCCCS(=O)(=O)[O-] [ACAMPROSATE CALCIUM] | 8.04% |
| CCC[C@H](NC(=O)[C@@H]1[C@H]2CCC[C@H]2CN1C(=O)[C@@H](NC(=O)[C@@H](NC(=O)c1cnccn1)C1CCCCC1)C(C)(C)C)C(=O)C(=O)NC1CC1 [Telaprevir (VX-950)] | -39.3% |
| CC(C)Cn1cnc2c(N)nc3ccccc3c21 [Imiquimod] | -14.9% |
| O=C(c1ccc(C(=O)N2CCC(N3CCCC3)CC2)c(Nc2ccccc2)c1)N1CCC(N2CCCC2)CC1 [UNC-1215] | -10.4% |
| CC1(C)[C@@H](O)CC[C@@]2(C)[C@H]1CC[C@]3(C)[C@@H]2C(=O)\C=C/4[C@@H]5C[C@](C)(CC[C@]5(C)CC[C@@]34C)C(O)=O [Enoxolone] | -35.4% |
| CC[C@@]1(O)C(=O)OC\C2=C1\C=C\3N(CC4=C3N=C5C=CC=CC5=C4)C2=O [Camptothecin] | -65.5% |
| OC1=CC2=C(C(=C1)O)C(=O)\C=C(/O2)C3=CC(=C(O)C=C3)O [Digitoflavone] | -77.5% |
| C[C@H](O)[C@H]1[C@@H]2[C@H](C)C(=C(\N2C1=O)C(O)=O)/S[C@@H]3CN[C@H](CN[S+](N)([O-])=O)C3 [Doripenem] | 5.86% |
| CCOC(=O)/C=C/[C@H](C[C@@H]1CCNC1=O)NC(=O)[C@@H](CC(=O)[C@@H](NC(=O)c1cc(C)on1)C(C)C)Cc1ccc(F)cc1 [Rupintrivir] | -12.7% |
| NC\1=N\C(=O)N(\C=C1)[C@@H]2CS[C@H](CO)O2 [Lamivudine] | -6.75% |
| Cl.NC(CO)C(=O)NNCc1ccc(O)c(O)c1O (configuration not stated) [Benserazide] | -65.3% |
| Oc1ccc(C2CNCCc3c2cc(O)c(O)c3Cl)cc1 (configuration not stated) [Fenoldopam] | -23.6% |
| Nc1ncc(C(=O)NC2CN(C(=O)C3CC3)C2)c2ccc(-c3cccc(F)c3)nc12 [GNE-495] | -23.5% |

| Structure (SMILES) | efficacy |
| --- | --- |
| C=C1/C(=C\C=C2/CCC[C@]3(C)[C@@H]([C@H](C)CCCC(C)(C)O)CC[C@@H]23)C[C@@H](O)C[C@@H]1O [Calcitriol] | -65% and -62.8% |
| COC(=O)[C@H](c1ccccc1Cl)N1CCc2sccc2C1 [Clopidogrel bisulfate] | -22.3% |
| O=C\1N(N\C=C1[N]2C=CN=N2)C3=NC=NC(=C3)N4CCOCC4 [Molidustat] | -58.6% |
| COc1cc2c(cc1OC)CC(=O)N(CCCN(C)C[C@H]1Cc3cc(OC)c(OC)cc31)CC2 [Ivabradine hydrochloride] | -21.3% |
| Oc1nc(-c2ccc(C(F)(F)F)cc2)nc2c1CSCC2 [NVP-XAV-939] | -13.5% |
| Nc1ncnc2c1C(=O)N(c1ccc([C@H]3CC[C@H](CC(=O)O)CC3)cc1)CCO2 | -5.95% |
| COCc1c(-c2ccc(NC(=O)Nc3cc(C(F)(F)F)ccc3F)c(F)c2)c2c(N)ncnn2c1CN1CCOCC1 [ACTB-1003] | -76% |
| Cn1cc(-c2ccc3nnc(Sc4ccc5ncccc5c4)n3n2)cn1 [SGX-523] | -6.72% |
| COC/1=C(\CNC(=O)C2=C(C)[N]([C@H](C)C3CCN(CC3)CC(F)(F)F)C4=C2C=CC=C4)C(=O)N/C(=C1)C [CPI-1205] | -27.1% |
| O=C(Oc1ccc([N+](=O)[O-])cc1)N1CCN(Cc2cccc(Oc3ccccc3)c2)CC1 [JZL-195] | -38.1% |
| O=[S+]([O-])(O)c1ccc2cc(/N=N/c3cc([S+](=O)([O-])O)c4cccnc4c3O)ccc2c1 | -23.5% |
| O=C(O)c1nn(Cc2ccc(Cl)cc2Cl)c2ccccc12 [Lonidamine] | -7.79% |
| FC1=CC=C(CN2\C=C/C=C(/C(=O)N[C@@H](COC3=CC4=C(NC(=O)N4)C=C3)C5=CC=CC=C5)C2=O)C=C1F [PDPK1 Inhibitor] | -72.1% |
| COC1=C(OC)C(=O)C(C/C=C(\C)CC/C=C(\C)CC/C=C(\C)CC/C=C(/C)CC/C=C(\C)CC/C=C(\C)CC/C=C(\C)CC/C=C(\C)CC/C=C(\C)CCC=C(C)C)=C(C)C1=O [Coenzyme Q10] | 7.5% |
| CC1=C(/C=C/C(C)=C/C=C/C(C)=C\C(=O)O)C(C)(C)CCC1 [Isotretinoin] | -13.5% |
| C=CCN(/C=C1\C(=O)O[C@@H](COC)[C@]2(C)C1=C(O)C(=O)C1=C2[C@@H](OC(C)=O)C[C@]2(C)C(=O)CC[C@H]12)CC=C [PX-866] | -20.5% |
| COCCOC1=CN=C2\C=C/N([C@H](C)C3=NN=C4[N]3C=C(C=C4F)C5=C[N](C)N=C5)C(=O)C2=C1 [AMG-337] | -4.95% |
| OCc1ccc(-c2nn(Cc3ccccc3)c3ccccc23)o1 [Lificiguat] | -57.1% |
